Reference: US20110218172A1, “COMPOSITION FOR DOWN-REGULATING PRO-INFLAMMATORY MARKERS” (priority 2010, published 2011)

Legend:
[1] = tested on: intracellular TNF-α in murine neutrophils; assay: Intracellular in vitro TNF-α estimation in LPS-stimulated murine neutrophils (flow cytometry); assay type: cell-based; conditions: 100 μg/ml, 3 h
Procedure: Cells were stimulated with LPS and incubated with test materials at graded concentrations (μg/ml) for 3 hours, in a CO2 incubator. The permeabilising solution was added to the cells and then these were incubated for 10 min. The cells were then labeled with conjugated anti-mouse TNF-α monoclonal antibody and further incubation of 30 min. duration was carried out in dark. After washing with Phosphate buffered saline, the samples were acquired directly on BD-Cantoll Flowcytometer (Beckton-Dickinson Biosciences, CA, USA). A fluorescence trigger was set on the FL1 parameter of the gated neutrophils populations (10,000 events) and fluorescence compensation, data analysis and data presentation was performed using Cell Quest Pro software. [Clara, B., R. C. Arancha, G. M. Andre's, P. Atanasio, A. Julia, and O. Alberto. 2003. A new method for detecting TNF-α-secreting cells using direct immunofluorescence surface membrane stainings. J. Immuno. Methods 264:77-87.][Khurshid A. Bhat, Bhahwal A. Shah, Kuldeep K. Gupta, Anjali Pandey, Sarang Bani, Subhash C. Taneja. Semi-synthetic analogs of pinitol as potential inhibitors of TNF-a cytokine expression in human neutrophils. Bioorganic & Medicinal Chemistry Letters 19 2009, 1939-1943].

[2] = tested on: Mycobacterium tuberculli induced inflammatory arthritis in rats (injected paw); assay: Adjuvant-induced developing inflammatory arthritis (prophylactic), injected paw oedema; assay type: in vivo, Wistar rats; conditions: 100 mg/kg oral once daily, day 14, injected paw
Procedure: Wistar rats, 12-14 weeks old, 140-160 g body weight in groups of 6 were employed in the study. All the animals were maintained in plastic cages at 22±2° C. with 12 h light/dark cycle and free access to pellet food and water. Test materials were administered orally once a day for the duration of the experiment. In all the experiments, a control group was maintained (vehicle administered) whilst the other group received a standard drug acetylsalicylic acid (ASA) administered once daily for comparison and authenticity/credibility of the test. The entire study was carried out after approval from Institutional Animal Ethics Committee and all the animals used in experimental work received humane care. The mean and standard error (S.E.) of the mean for each group was calculated and the results were expressed as percent inhibition compared to control group. The significance was determined statistically by applying Student's t-test.
Adjuvant arthritis was induced by the sub-plantar injection of 0.05 ml freshly prepared suspension (5.0 mg/ml) of steam killed Mycobacterium tuberculosis in liquid paraffin [Newbould BB. Chemotherapy of arthritis induced in rats by mycobacterial adjuvant. Br J Pharmacol 1963; 21:127-36]. The volume of the injected paws was quantitated before and on day 14th after the adjuvant injection and was measured by a volume differential meter model LE 7500N, Panlab, Spain.

COc1ccc(C2CNC(=O)C2)cc1OC1CCCC1 (stereo not shown) [Rolipram]
% TNF-alpha expression against LPS control (↓ decrease) [1]: 71.48↓ %
intracellular TNF-α expression Mean ± S.E ([1]; n=3): 0.71 ± 0.04

CC(=O)Oc1ccccc1C(=O)O [ASA, Acetylsalicylic acid]
Oedema Mean ± S.E. [2]: 1.82 ± 0.17 mm
inhibition at 100 mg/kg ([2]; Mycobacterium, 336 h, read-out: Percentage Activity Against Arthritic Control (↓ percent inhibition)): 37%
